Measurements taken from patent US8067582B2 (Bristol-Myers Squibb Company, priority 2007, dated 2011).
Like-named read-outs stand apart in the source and are kept apart here.

Assays:
androgen receptor (AR) = target: T1, androgen receptor (AR) (Homo sapiens, UniProt P10275); assay: MDA-MB-453 Androgen Receptor Transactivation Assay (PSA-Luc reporter, 3 nM DHT); format: cell-based; settings: MDA-MB-453 cells, antagonism in presence of 3 nM DHT, 48 hour incubation
T1 sequence (P10275 1-920): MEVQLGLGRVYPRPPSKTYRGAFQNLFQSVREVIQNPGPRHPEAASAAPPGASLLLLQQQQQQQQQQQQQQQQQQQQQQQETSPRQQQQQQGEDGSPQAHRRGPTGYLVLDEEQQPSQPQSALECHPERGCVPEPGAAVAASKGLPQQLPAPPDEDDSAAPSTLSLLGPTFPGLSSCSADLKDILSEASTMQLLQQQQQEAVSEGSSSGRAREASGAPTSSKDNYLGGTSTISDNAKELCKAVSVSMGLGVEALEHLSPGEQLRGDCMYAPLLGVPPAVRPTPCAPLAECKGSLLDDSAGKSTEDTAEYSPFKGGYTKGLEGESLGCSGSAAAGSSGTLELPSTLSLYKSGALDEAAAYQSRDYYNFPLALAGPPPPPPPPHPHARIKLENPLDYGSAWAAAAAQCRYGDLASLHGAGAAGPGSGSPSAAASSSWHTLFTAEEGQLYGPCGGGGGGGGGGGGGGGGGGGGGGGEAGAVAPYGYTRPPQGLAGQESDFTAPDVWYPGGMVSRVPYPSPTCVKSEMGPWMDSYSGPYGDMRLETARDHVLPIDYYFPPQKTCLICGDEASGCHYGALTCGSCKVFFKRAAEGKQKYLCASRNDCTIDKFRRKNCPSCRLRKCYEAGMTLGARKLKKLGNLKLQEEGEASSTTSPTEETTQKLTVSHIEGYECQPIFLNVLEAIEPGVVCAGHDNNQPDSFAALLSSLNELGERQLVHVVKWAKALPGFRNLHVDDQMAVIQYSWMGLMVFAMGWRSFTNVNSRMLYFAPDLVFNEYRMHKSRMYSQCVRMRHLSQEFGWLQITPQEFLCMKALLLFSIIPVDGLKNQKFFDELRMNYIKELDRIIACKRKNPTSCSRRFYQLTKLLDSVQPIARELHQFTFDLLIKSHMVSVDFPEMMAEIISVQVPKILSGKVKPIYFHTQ
Source text: Compounds can be tested in a cell based transactivation assay used to measure the antagonism of androgen receptor (AR) transcriptional activity. The transactivation assay provides a means of identifying antagonists that inhibit the effects of the native hormone dihydrotestosterone (DHT). […] The pGL3 PSA-Luc reporter plasmid is comprised of the cDNA for the firefly luciferase gene and the upstream promoter sequences containing the androgen response elements (AREs) of the prostate specific antigen (PSA). This plasmid functions as a reporter for the transcription-modulating activity of the AR. In order to detect antagonists, the transactivation assay is conducted in the presence of constant concentration of the natural AR hormone (DHT) to induce a defined reporter signal. Addition of increasing concentrations of the suspected antagonist will decrease the reporter signal (luciferase activity).
MDA-MB-453 and 22 RV1 cells were maintained in DMEM (Cellgro, Cat. #10-014-CM) or RPMI 1640 (Gibco Cat. #11875-085) respectively and supplemented with 10% FBS (Invitrogen/GIBCO Life Science). Cells were bulk transfected in flasks with 1.3 ug/ml pGL3 PSA-Luc plasmid by using the Lipofectamine 2000 Reagent (Invitrogen, Cat. #11668-019) and serum-free Opti-MEM I media (Invitrogen, Cat #31985-070) according to the manufacturer's optimized conditions. Transfection was conducted at 37° C. with 5% CO2 for 16-18 hours. Following transfection, cells are washed, treated with trypsin, counted, and seeded in a 96-well plate at 30,000 cells per well in DMEM containing 10% Charcoal/Dextran Treated Fetal Bovine Serum (Gibco Cat. #11054-020) for MDA-MB-453 cells or RPMI 1640 (Gibco Cat. #110835) containing 10% FBS (Invitrogen/GIBCO Life Science) for 22 RV1 cells.
Following transfection, cells were incubated in the absence (blank) or presence (control) of 3 nM DHT (Sigma, Cat. #A-8380) and in the presence or absence of the standard antiandrogen bicalutamide or test compounds ranging in concentrations from 10^−10 to 10^−5M. Duplicates were used for each sample. The compound dilutions were performed by the Tecan Genesis (Tecan, Triangle Park, N.C.). After a 48 hour incubation, luciferase activity was measured using the Steady-Glo Luciferase Assay System (Promega, Cat. #E2550) according to manufacturer's specifications and luminescence was measured on a Packard TopCount (PerkinElmer). For each luciferase sample reading, the percent control (in absence of compounds) was calculated as: % Control=100×[averagesample−averageblank]/[averagecontrol−averageblank] Data was plotted and the IC50 value was defined as the concentration of compound that inhibited 50% of the luciferase activity for the controls.
Compounds described herein were tested in the AR transactivation assay described immediately above, using MDA-MB-453 cells.

[1] = system: immature castrated male rats; assay: Immature Rat Prostate Weight (IRPW) Assay; format: in vivo, rat (Sprague-Dawley); settings: Rattus norvegicus, 96 h, read-out: IRPW SV/FB (% control)
[2] = immature castrated rats, 3 mpk PO QD × 4 days

| IC50 (androgen receptor (AR); read-out: IC50) | Structure (SMILES) | IC50 (androgen receptor (AR)) | response vs control in vivo at 3 mg/kg ([1]; po) | response vs control in vivo at 5 mg/kg ([1]; po) | response vs control in vivo at 3 mg/kg [1, 2] |
| --- | --- | --- | --- | --- | --- |
|  | COC(=O)N[C@@H]1C[C@@]23CCO[C@H]4[C@@H]2[C@H](C(=O)N4c2ccc(C#N)c(C(F)(F)F)c2)[C@]1(C)O3 [Example 207, Methyl ((1R,3R,4S,5S,8S,12R)-7-(4-cyano-3-(trifluoromethyl)phenyl)-4-methyl-6-oxo-9,13-dioxa-7-azatetracyclo[6.3.1.1^1,4.0^5,12]tridec-3-yl)carbamate] | 54 nM | 37% |  |  |
|  | C[C@]12O[C@@]3(CCO[C@H]4[C@@H]3[C@@H]1C(=O)N4c1ccc(C#N)c(C(F)(F)F)c1)C[C@H]2O (single isomer, unassigned) [Example 1] | 177 nM |  | 54% |  |
| 1710 nM | Cc1cc(N2C(=O)[C@H]3[C@H]4[C@@H]2OCC[C@@]42O[C@]3(C)C[C@@H]2O)ccc1C#N [Example 122, 4-((1R,2S,4R,5S,8S,12R)-2-hydroxy-4-methyl-6-oxo-9,13-dioxa-7-azatetracyclo[6.3.1.1^1,4.0^5,12]tridec-7-yl)-2-methylbenzonitrile] |  |  |  | 90% |
|  | COC(=O)N[C@@H]1C[C@]23CCO[C@@H]4[C@H]2[C@@H](C(=O)N4c2ccc(C#N)c(C(F)(F)F)c2)[C@@]1(C)O3 [Example 14, Methyl ((1S,3R,4R,5R,8R,12S)-7-(4-cyano-3-(trifluoromethyl)phenyl)-4-methyl-6-oxo-9,13-dioxa-7-azatetracyclo[6.3.1.1^1,4.0^5,12]tridec-3-yl)carbamate] | 185 nM | 35% |  |  |
| 1340 nM | C[C@@]12C[C@H](O)[C@]3(CCO[C@H]4[C@@H]3[C@@H]1C(=O)N4c1ccc(Cl)c(Cl)c1)O2 [Example 113, (1R,2S,4R,5S,8S,12R)-7-(3,4-dichlorophenyl)-2-hydroxy-4-methyl-9,13-dioxa-7-azatetracyclo[6.3.1.1^1,4.0^5,12]tridecan-6-one] |  |  |  | 68% |
|  | C[C@@]12C[C@@H](O)[C@]3(CCO[C@H]4[C@@H]3[C@@H]1C(=O)N4c1ccc(C#N)c(C(F)(F)F)c1)O2 [Example 6, 4-((1R,2R,4R,5S,8S,12R)-2-hydroxy-4-methyl-6-oxo-9,13-dioxa-7-azatetracyclo[6.3.1.1^1,4.0^5,12]tridec-7-yl)-2-(trifluoromethyl)benzonitrile] | 281 nM | 37% |  |  |
| 427 nM | C[C@@]12C[C@H](O)[C@]3(CCO[C@H]4[C@@H]3[C@@H]1C(=O)N4c1cnc(C#N)c(C(F)(F)F)c1)O2 [Example 267, 5-((1R,2S,4R,5S,8S,12R)-2-hydroxy-4-methyl-6-oxo-9,13-dioxa-7-azatetracyclo[6.3.1.1^1,4.0^5,12]tridec-7-yl)-3-(trifluoromethyl)-2-pyridinecarbonitrile] |  |  |  | 40% |
|  | C[C@@]12C[C@H](NS(=O)(=O)CC(F)(F)F)[C@]3(CCO[C@H]4[C@@H]3[C@@H]1C(=O)N4c1ccc(C#N)c(Cl)c1)O2 [Example 185, N-((1R,2S,4R,5S,8S,12R)-7-(3-Chloro-4-cyanophenyl)-4-methyl-6-oxo-9,13-dioxa-7-azatetracyclo[6.3.1.1^1,4.0^5,12]tridec-2-yl)-2,2,2-trifluoroethanesulfonamide] | 147 nM | 31% |  |  |
| 45 nM | COC(=O)N[C@H]1C[C@@]23CCO[C@H]4[C@@H]2[C@H](C(=O)N4c2ccc(Cl)c(C(F)(F)F)c2)[C@]1(C)O3 [Example 291, Methyl ((1R,3S,4S,5S,8S,12R)-7-(4-chloro-3-(trifluoromethyl)phenyl)-4-methyl-6-oxo-9,13-dioxa-7-azatetracyclo[6.3.1.1^1,4.0^5,12]tridec-3-yl)carbamate] |  |  |  | 35% |
|  | C[C@@]12C[C@H](O)[C@]3(CCO[C@H]4[C@@H]3[C@@H]1C(=O)N4c1ccc(C#N)c(C(F)(F)F)c1)O2 (single isomer, unassigned) [Example 3] | 175 nM | 41% |  |  |
